Numbers after ± are expanded uncertainties.
Test: xn = mol fraction of the nth substance listed
Conditions: 101 kPa, Liquid, Capillary tube (Ostwald / Ubbelohde) method, x2 = 0

With `CCCCCCO` [hexan-1-ol] + CCOCCOCCO the viscosity (293.15 K) was 4.963 ± 0.03 mPa·s, the viscosity (298.15 K) was 4.439 ± 0.027 mPa·s and the viscosity (303.15 K) was 3.675 ± 0.022 mPa·s. The viscosity (308.15 K) was 3.108 ± 0.019 mPa·s.
